Data: PMC8333062, “Chemical tools for epichaperome-mediated interactome dysfunctions of the central nervous system” (Nature Communications, 2021)
Several values for one entry are separate records, joined by “and”; a condition that tells them apart may be missing. Equal entries are not always repeated.

Assays:
[1] = test system: GBM#5; assay: PET of intracranial tumors; format: in vivo, mouse; details: microdose iv
Method: (§1) To test if our probes can detect and differentiate in vivo the epichaperome-dependent tumors from those that are not, we next performed intracranial xenotransplantation of GSCs from epichaperome-high (GSC#8), -medium (GSC#7; GSC#19) and -negative (GSC#5) specimens. For comparison we used intracranially xenotransplanted MDA-MB-468 tumors (Fig. 7a).
(§2) Orthotopic GBM xenografts in mice were established by injection of 5 × 10^5 cells in 2 μL PBS. For PET analyses, GSCs were injected into the striatum. Boreholes were made using a small hand drill. Mice were imaged with MRI (typically ~ 2–3 weeks after injection), and – if tumors were visible on MRI – they were imaged by micro-PET using the [^124I]-radiolabeled PU-HZ151. When mice started showing symptoms of progressing GBM, they received a microdose of [^124I]-PU-HZ151 and serial PET scans were performed at 20 mins, 6, 24, 48, 72, and 96 h post tracer administration using a dedicated small-animal PET scanner (Focus 120 microPET; Siemens Medical Solutions, USA, formerly Concorde Microsystems, Knoxville, TN). Mice were maintained under 2% isoflurane (Baxter Healthcare, Deerfield, IL) anesthesia in oxygen at 2 L min^−1 during the entire scanning period. To reduce the thyroid uptake of free iodide arising from metabolism of tracer, mice received 0.01% potassium iodide solution in their drinking water starting 48 h prior to tracer administration. For PET imaging, each mouse was administered [^124I]-PU-HZ151 (15 µCi g^−1, 3 µCi µL^−1 in saline, Hospira, 0.9% sodium chloride in water) via the tail vein or ip. Approximately 5 min prior to PET acquisition, mice were anesthetized by inhalation of a mixture of isoflurane (Baxter Healthcare, Deerfield, IL, USA; 2% isoflurane, 2 L min^−1 medical air) and positioned on the scanner bed. Anesthesia was maintained using a 1% isoflurane-O2 mixture. PET data for each mouse was recorded using static scans of 15 min and acquired at the indicated times post injection. Quantification and %ID g^−1 values were calculated by manually drawing regions of interests in three different frames and determining the average values using ASI Pro VM™ MicroPET Analysis software (Siemens Medical Solutions, Knoxville, TX).

[2] = test system: GBM#8; assay: PET of intracranial tumors; format: in vivo, mouse; details: microdose iv
Method: as §1, §2

[3] = test system: GBM#7; assay: PET of intracranial tumors; format: in vivo, mouse; details: microdose iv
Method: as §1, §2

[4] = test system: GBM#19; assay: PET of intracranial tumors; format: in vivo, mouse; details: microdose iv
Method: as §1, §2

[5] = test system: intracranial MDA-MB-468 tumors; assay: PET of intracranial tumors; format: in vivo, mouse; design: radioactivity, Blood / radioactivity, Brain, normal / radioactivity, Tumor - intracranial: unit: %ID/g (percent injected dose per gram); details: for radioactivity, Blood / radioactivity, Brain, normal / radioactivity, Tumor - intracranial: mean n=5
Method: We next investigated if the CNS-directed epichaperome probes detect epichaperome positivity and engage the target in brain tumors. MDA-MB-468 is a triple-negative breast cancer cell line, an aggressive breast cancer subtype with high propensity of metastasizing to the brain. We therefore initiated our studies with intracranial MDA-MB-468 tumors. We imaged the real-time whole-body distribution of [^124I]-labeled PU-HZ151 ([^124I]-PU-HZ151) between 1 h and 72 h to observe that PU-HZ151 was evenly distributed throughout the body with brain exposure equaling that of other tissues and non-metabolizing organs (see PET image at 1 h, Fig. 4a). A rapid clearance from HSP90 (present throughout the brain) but not epichaperome (present only in the tumor), provided unambiguous visualization and quantitation of epichaperome positivity through PET imaging. […] We also confirmed target positivity, and specific target and probe co-localization, through radiography and associated hematoxylin and eosin staining of brain tissue (Fig. 4c–e).
as §2

[6] = Adverse events in human patients (NCT03371420); format: in vivo; details: single microdose iv
[7] = Plasma pharmacokinetics in human patients; format: in vivo; details: order Patient#1, #2, #3, Mean
[8] = test system: intracranial MDA-MB-468 tumors; assay: PET of intracranial tumors; format: in vivo, mouse; design: unit: %ID/g (percent injected dose per gram); details: 96 h, mean n=5
[9] = PET biodistribution in human patients; format: in vivo; details: human, in vivo
From the text: To evaluate the brain permeability of PU-HZ151 into the human brain, we produced the [^124I]-labeled derivative and performed serial PET imaging studies of human patients (n = 3; NCT03371420), and derived time-activity (i.e. standard uptake values (SUV) versus time post-administration) curves for the brain and various other tissues (Fig. 2b). PET data obtained for [^124I]-labeled PU-H71 (NCT01269593 and ref. [39]) were used for comparison. […] The AUC values recorded for [^124I]-PU-HZ151 in the human brain post-single injection are at par with what was measured in the human muscle and lung, supportive of uptake of PU-HZ151 into the human brain (Fig. 2b). Magnetic resonance imaging (MRI), by offering structural and soft tissue resolution, confirmed the presence of PU-HZ151 in the brain tissue (Fig. 2d). […] The secondary outcome of the trial was to measure adverse events following administration of the probe. Safety of [^124I]-PU-HZ151 in human subjects was assessed by evaluation of the incidence, nature, and severity of adverse events and serious adverse events (Supplementary Note 2).
[^124I]-PU-HZ151 and [^124I]-PU-H71 were synthesized in-house by the institutional cyclotron core facility at high specific activity. Analyses of the epichaperome by positron emission tomography (PET-CT) were performed as previously reported. In brief, research PET-CT was performed using an integrated PET-CT scanner (Discovery DSTE, GE Healthcare). CT scans for attenuation correction and anatomic coregistration were performed before tracer injection. Patients received 5 mCi of [^124I]-PU-HZ151 or [^124I]-PU-H71 by peripheral vein over 2 min. PET data were reconstructed using a standard ordered subset expected maximization iterative algorithm. Emission data were corrected for scatter, attenuation, and decay. PET scans were performed 0.5, 3, and 24 h after tracer administration. Numbers in the scale bar indicate upper and lower standardized uptake value (SUV) thresholds that define pixel intensity on PET images. SUV is a pixel value, derived from PET measurements of in vivo radioactivity, quantified as the fraction of the radioactive dose injected found in a cubic centimeter of measured tissue multiplied (ie, normalized) by patient body weight (grams). Maximum Intensity Projection (MIP) 3D images were constructed from the voxels with maximum intensity that fell in the way of parallel rays traced from the viewpoint to the plane of projection. At each pixel the highest data value encountered along the corresponding viewing ray was determined. MRI scans were obtained as part of routine clinical care using hardware and standard data acquisition and processing methods. MRI was obtained using a 1.5T magnet (Signa HDxt, GE Healthcare, Milwaukee, WI). […] Gadopentetate dimeglumine (Magnevist, HealthCare Pharmaceuticals Inc.) was injected though a peripheral angiocatheter at a standard dose (0.2 mL kg^−1 body weight, 40 mL, 2 cc s^−1). For precise localization of tracer uptake to specific neuroanatomical structures, PET brain images were fused to MRI brain images using the Integrated Registration application of the AW Suite software package (GE Healthcare, Milwaukee, Wisconsin, USA).

[10] = test system: lung carcinoma; assay: PET in a lung cancer patient; format: in vivo, human

radioactivity, Blood ([5]; 1 h): 1.8445
radioactivity, Brain, normal ([5]; 1 h): 0.4287
radioactivity, Tumor - intracranial ([5]; 1 h): 2.4287
radioactivity, Blood ([5]; 2 h): 0.7280
radioactivity, Brain, normal ([5]; 2 h): 0.0550
radioactivity, Blood ([5]; 6 h): 0.2100
radioactivity, Brain, normal ([5]; 6 h): 0.1400
radioactivity, Tumor - intracranial ([5]; 6 h): 0.6541
radioactivity, Blood ([5]; 24 h): 0.0110
radioactivity, Brain, normal ([5]; 24 h): 0.0010
radioactivity, Tumor - intracranial ([5]; 24 h): 0.1284
radioactivity, Blood ([5]; 48 h): 0.0060
radioactivity, Brain, normal ([5]; 48 h): 0.0000
radioactivity, Tumor - intracranial ([5]; 48 h): 0.0885
radioactivity, Blood ([5]; 72 h): 0.0040
radioactivity, Brain, normal ([5]; 72 h): 0.0000
radioactivity, Tumor - intracranial ([5]; 72 h): 0.0351
radioactivity, Brain, normal ([5]; 96 h): 0.0000
2nd Component Half-time [7]: 1.87 h and 2.97 h and 2.35 h
radioactivity, Blood [8]: 0.0050
biological half-life in normal brain tissue [9]: less than 0.5 hours
radioactivity, Brain-gray ([10]; 0.5 h): 1.16 SUV
radioactivity, Lung ([10]; 0.5 h): 0.56 SUV
radioactivity, Muscle ([10]; 0.5 h): 0.72 SUV
radioactivity, Tumor ([10]; 0.5 h): 2.52 SUV
radioactivity, Brain-gray ([10]; 3 h): 0.41 SUV
radioactivity, Lung ([10]; 3 h): 0.29 SUV
radioactivity, Muscle ([10]; 3 h): 0.32 SUV
radioactivity, Tumor ([10]; 3 h): 2.1 SUV
radioactivity, Brain-gray ([10]; 24 h): 0.03 SUV
radioactivity, Lung ([10]; 24 h): 0.07 SUV
radioactivity, Muscle ([10]; 24 h): 0.09 SUV
radioactivity, Tumor ([10]; 24 h): 0.79 SUV
SMILES: CC(C)(C)CNCCn1c(Sc2cc3c(cc2[124I])OCO3)nc2c(N)ncnc21 [[124I]-PU-HZ151]
AUC^tumor/blood [1]: 143
AUC^tumor/blood [2]: 80
AUC^tumor/blood [3]: 893
AUC^tumor/blood [4]: 444
AUC^tumor/blood ([5]; PET, microdose iv): 1303
probe-related toxicity [6]: No radioiodinated probe-related toxicity was evident
2nd Component Half-time ([7]; then text value): 1.87 h and 2.97 h and 2.2 h and 2.35 h and 2.35 ± 0.563 h
area under the curve (AUC) ([7]; plasma): 0.0225 (%ID g-1)h and 0.0199 (%ID g-1)h and 0.0127 (%ID g-1)h and 0.0184 (%ID g-1)h
